In EP4603105A1, “PHARMACEUTICAL COMPOSITION CONTAINING CYCLIC COMPOUND HAVING SELECTIVE KRAS INHIBITORY EFFECT AGAINST HRAS AND NRAS” (CHUGAI SEIYAKU KABUSHIKI KAISHA, priority 2022, dated 2024):
Where a SMILES comes first, the peptide text is derived from it. Bridges are numbered along the chain shown (N, C = ends). [ ]: non-standard residue; d: D form. The star is where a group is joined. hPhe(3-Cl-4-CF3) = N[C@@H](CCc1ccc(C(F)(F)F)c(Cl)c1)C(=O)O; NPrPhe(4-CF3) = CCCN[C@@H](Cc1ccc(C(F)(F)F)cc1)C(=O)O; NMeGly(cPent) = CN[C@H](C(=O)O)C1CCCC1; NMeD = CN[C@@H](CC(=O)O)C(=O)O; NMeL = CN[C@@H](CC(C)C)C(=O)O; Morpholide = C1CN(*)CCO1; NMeA = CN[C@@H](C)C(=O)O; Ac5c = NC1(C(=O)O)CCCC1; Aze = O=C(O)[C@@H]1CCN1; Abu = CC[C@H](N)C(=O)O; Ac4c = NC1(C(=O)O)CCC1; Aib = CC(C)(N)C(=O)O; Sar = CNCC(=O)O

Columns and labels:
[1] = target: GDP-bound NRAS wild-type protein (Homo sapiens, UniProt P01111); assay: Binding to NRAS by surface plasmon resonance (SPR), KD and KD ratio to KRAS
Method in brief: (§1)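 Biotinylated GDP-bound RAS was captured at about 100–300 RU. Running buffer: HBS pH 7.4, 10 mM MgCl2, 10 µM GDP, 1 mM DTT, 0.01% Tween 20, 4% DMSO.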

[2] = target: HRAS wild-type protein (Homo sapiens, UniProt P01112); assay: Binding to HRAS by surface plasmon resonance (SPR), KD and KD ratio to KRAS
Method in brief: as §1

[3] = system: human lung cancer strain NCI-H441; format: cell-based
Method in brief: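 Step one: dispense the test compound in serial DMSO dilutions. Step three: add the reagent and measure […].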

[4] = ratio of KD value for GDP-bound NRAS wild-type protein to KD value for KRAS (SPR)
[5] = ratio of KD value for HRAS wild-type protein to KD value for KRAS (SPR)
[6] = ratio of the KD value with respect to GDP-bound NRAS wild-type protein to the KD value with respect to KRAS
[7] = ratio of the KD value with respect to HRAS wild-type protein to the KD value with respect to KRAS
[8] = ratio of KD for GDP-bound NRAS wild-type protein to KD for KRAS
[9] = ratio of KD for HRAS wild-type protein to KD for KRAS

GDP-bound NRAS wild-type protein, sequence (P01111 whole entry): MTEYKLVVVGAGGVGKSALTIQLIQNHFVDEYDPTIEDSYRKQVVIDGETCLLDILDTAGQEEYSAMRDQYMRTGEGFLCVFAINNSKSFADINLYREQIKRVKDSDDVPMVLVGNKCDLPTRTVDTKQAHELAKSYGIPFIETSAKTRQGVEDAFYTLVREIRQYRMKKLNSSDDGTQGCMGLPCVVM
HRAS wild-type protein, sequence (P01112 whole entry): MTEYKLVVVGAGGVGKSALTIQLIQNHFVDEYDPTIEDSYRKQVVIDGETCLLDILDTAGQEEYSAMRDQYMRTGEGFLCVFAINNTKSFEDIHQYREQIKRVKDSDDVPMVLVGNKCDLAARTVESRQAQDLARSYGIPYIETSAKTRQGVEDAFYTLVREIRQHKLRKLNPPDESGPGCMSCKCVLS

SMILES	IC50 [3]	NRAS /KRAS [1, 6]	HRAS /KRAS [2, 7]	NRAS /KRAS [1, 8]	HRAS /KRAS [2, 9]	further results
CCCOC[C@H]1C(=O)N[C@@H]([C@@H](C)CC)C(=O)N(C)CC(=O)N(C)[C@H]2C/C=C\CCN(C2=O)[C@@H](Cc2ccc(C(F)(F)F)cc2)C(=O)N(C)CC(=O)N[C@@H](CCc2cc(F)c(C(F)(F)F)c(F)c2)C(=O)N2C[C@H](OCC)C[C@H]2C(=O)NC2(CC(C)(C)C2)C(=O)N(C)[C@@H](C2CCCC2)C(=O)N(C)[C@H](C(=O)N(CC)CC)CC(=O)N1C [PP1575]	0.0111 µM	–	–	–	–	NRAS /KRAS [1, 4]: B (a compound having 3 or more and less than 10 is denoted as B); HRAS /KRAS [2, 5]: B (a compound having 3 or more and less than 10 is denoted as B)
CCO[C@@H]1C[C@H]2C(=O)NC3(CCC3)C(=O)N(C)[C@@H](C3CCCC3)C(=O)N(C)[C@H](C(=O)N(CC)CC)CC(=O)N(C)[C@@H](CC)C(=O)N[C@@H]([C@@H](C)CC)C(=O)N(C)CC(=O)N(C)[C@H]3C/C=C\CCN(C3=O)[C@@H](Cc3ccc(C(F)(F)F)cc3)C(=O)N(C)CC(=O)N[C@@H](CCc3cc(F)c(C(F)(F)F)c(F)c3)C(=O)N2C1 [PP1305]	0.013 µM	–	–	–	–	NRAS /KRAS ([1]; ratio of KD with respect to GDP-bound NRAS wild-type protein to KD with respect to KRAS): AA (a compound having 20 or more is denoted as AA); HRAS /KRAS ([2]; ratio of KD with respect to HRAS wild-type protein to KD with respect to KRAS): A (a compound having 10 or more and less than 20 is denoted as A)
CCC[C@H]1C(=O)N[C@@H](C(CC)CC)C(=O)N(C)CC(=O)N(C)[C@H]2C/C=C\CCN(C2=O)[C@@H](Cc2ccc(C)cc2)C(=O)N(C)CC(=O)N[C@@H](CCc2ccc(C(F)(F)F)c(Cl)c2)C(=O)N2C[C@H](OCC)C[C@H]2C(=O)NC2(CC(C)(C)C2)C(=O)N(C)[C@@H](C2CCCC2)C(=O)N(C)[C@H](C(=O)N(C)C)CC(=O)N1C [PP2209]	0.037 µM	A (a compound having 10 or more and less than 20 is denoted as A)	A (a compound having 10 or more and less than 20 is denoted as A)	–	–	–
CCO[C@@H]1C[C@H]2C(=O)NC3(CC(C)(C)C3)C(=O)N(C)[C@@H](C3CCCC3)C(=O)N(C)[C@H](C(=O)N(C)CC)CC(=O)N(C)[C@@H](CC(C)C)C(=O)N[C@@H]([C@@H](C)CC)C(=O)N(C)CC(=O)N(C)[C@H]3C/C=C\CCN(C3=O)[C@@H](Cc3ccc(C(F)F)cc3)C(=O)N(C)CC(=O)N[C@@H](CCc3cc(F)c(C(F)(F)F)c(F)c3)C(=O)N2C1 [PP2046]	0.0022 µM	A (a compound having 10 or more and less than 20 is denoted as A)	A (a compound having 10 or more and less than 20 is denoted as A)	–	–	–
CCCN1C(=O)[C@@H]2CCN2C(=O)[C@H](C)N(C)C(=O)[C@H]([C@@H](C)CC)NC(=O)[C@H](CC(C)C)N(C)C(=O)C[C@@H](C(=O)N2CCOCC2)N(C)C(=O)[C@H](C2CCCC2)N(C)C(=O)C2(CCC2)NC(=O)[C@@H]2CCCN2C(=O)[C@H](CCc2ccc(C(F)(F)F)c(Cl)c2)NC(=O)CN(C)C(=O)[C@@H]1Cc1ccc(C(F)(F)F)cc1 [PP0198] ([NMeL]I[NMeA][Aze][NPrPhe(4-CF3)][Sar][hPhe(3-Cl-4-CF3)]P[Ac4c][NMeGly(cPent)][NMeD]-Morpholide; lactam N-11)	0.0057 µM	–	–	C (A compound having a KD ratio of 0.1 or more and less than 3 is denoted as C)	B (a compound having 3 or more and less than 10 is denoted as B)	–
CCCN(C)C(=O)[C@@H]1CC(=O)N(C)[C@@H](C(C)C)C(=O)N[C@@H]([C@@H](C)CC)C(=O)N(C)CC(=O)N(C)[C@H]2C/C=C\CCN(C2=O)[C@@H](Cc2ccc(C(F)(F)F)cc2)C(=O)N(C)CC(=O)N[C@@H](CCc2cc(F)c(C(F)(F)F)c(F)c2)C(=O)N2C[C@@H](C)C[C@H]2C(=O)NC2(CCC2)C(=O)N(C)[C@@H](C2CCCC2)C(=O)N1C [PP2079]	0.016 µM	A (a compound having 10 or more and less than 20 is denoted as A)	A (a compound having 10 or more and less than 20 is denoted as A)	–	–	–
CC[C@H](C)[C@@H]1NC(=O)[C@H](CC(C)C)N(C)C(=O)C[C@@H](C(=O)N(C)CC)N(C)C(=O)[C@H](C2CCCC2)N(C)C(=O)C2(CC(C)(C)C2)NC(=O)[C@@H]2C[C@H](C)CN2C(=O)[C@H](CCc2ccc(C(F)(F)F)c(OC)c2)NC(=O)CN(C)C(=O)[C@H](Cc2ccc(C)cc2)N2CC/C=C\C[C@@H](C2=O)N(C)C(=O)CN(C)C1=O [PP1906]	0.0108 µM	A (a compound having 10 or more and less than 20 is denoted as A)	A (a compound having 10 or more and less than 20 is denoted as A)	–	–	–
CCCN1C(=O)CN(C)C(=O)CN(C)C(=O)[C@H]([C@@H](C)CC)NC(=O)[C@H](CC(C)C)N(C)C(=O)C[C@@H](C(=O)N2CCOCC2)N(C)C(=O)[C@H](C2CCCC2)N(C)C(=O)C(C)(C)NC(=O)[C@@H]2CCCN2C(=O)[C@H](CCc2ccc(C(F)(F)F)c(Cl)c2)NC(=O)CN(C)C(=O)[C@@H]1Cc1ccc(C(F)(F)F)cc1 [PP0230] ([NMeL]I[Sar][Sar][NPrPhe(4-CF3)][Sar][hPhe(3-Cl-4-CF3)]P[Aib][NMeGly(cPent)][NMeD]-Morpholide; lactam N-11)	0.0155 µM	–	–	B (a compound having 3 or more and less than 10 is denoted as B)	C (A compound having a KD ratio of 0.1 or more and less than 3 is denoted as C)	–
CC[C@H](C)[C@@H]1NC(=O)[C@H](CC2CC2)N(C)C(=O)C[C@@H](C(=O)N(C)C)N(C)C(=O)[C@H](C2CCCC2)N(C)C(=O)C2(CC(C)(C)C2)NC(=O)[C@@H]2C[C@@H](F)CN2C(=O)[C@H](CCc2cc(F)c(C(F)(F)F)c(F)c2)NC(=O)CN(C)C(=O)[C@H](Cc2ccc(C(F)(F)F)cc2)N2CC/C=C\C[C@@H](C2=O)N(C)C(=O)CN(C)C1=O [PP1501]	0.0015 µM	–	–	–	–	NRAS /KRAS [1, 4]: A (a compound having 10 or more and less than 20 is denoted as A); HRAS /KRAS [2, 5]: A (a compound having 10 or more and less than 20 is denoted as A)
CCC[C@H]1C(=O)N[C@@H]([C@@H](C)CC)C(=O)N(C2CC2)CC(=O)N(C)[C@H]2C/C=C\CCN(C2=O)[C@@H](Cc2ccc(C)cc2)C(=O)N(C)CC(=O)N[C@@H](CCc2ccc(C(F)(F)F)c(OC)c2)C(=O)N2C[C@H](OCC)C[C@H]2C(=O)N(C)C2(CCC2)C(=O)N(C)[C@@H](C2CCCC2)C(=O)N(C)[C@H](C(=O)N2CCCCC2)CC(=O)N1C [PP3096]	0.0358 µM	–	–	A (a compound having 10 or more and less than 20 is denoted as A)	A (a compound having 10 or more and less than 20 is denoted as A)	–

Continued by falling IC50 [3], values first:

IC50 [3]	SMILES	NRAS /KRAS [1, 6]	HRAS /KRAS [2, 7]	NRAS /KRAS [1, 8]	HRAS /KRAS [2, 9]	further results
0.133 µM	CCO[C@@H]1C[C@H]2C(=O)NC3(CCC3)C(=O)N(C)[C@@H](C3CCCC3)C(=O)N(C)[C@H](C(=O)N(C)C)CC(=O)N(C)[C@@H](CC3CCCC3)C(=O)N[C@@H]([C@@H](C)CC)C(=O)N(C)CC(=O)N(C)[C@H]3C/C=C\CCN(C3=O)[C@@H](Cc3ccc(C)cc3)C(=O)N(C)CC(=O)N[C@@H](CCc3ccc(C4CC4)c(C)c3)C(=O)N2C1 [PP2685]	–	–	A (a compound having 10 or more and less than 20 is denoted as A)	A (a compound having 10 or more and less than 20 is denoted as A)	–
0.107 µM	CC[C@H](C)[C@@H]1NC(=O)[C@H](CC)N(C)C(=O)C[C@@H](C(=O)N(C)C)N(C)C(=O)[C@H](C2CCCC2)N(C)C(=O)C2(CCC2)NC(=O)[C@@H]2CCCN2C(=O)[C@H](CCc2cc(C)c(Cl)c(C)c2)NC(=O)CN(C)C(=O)[C@H](Cc2ccc(C(F)(F)F)cc2)N2CC/C=C\C[C@@H](C2=O)N(C)C(=O)CN(C)C1=O [PP1822]	–	–	–	–	NRAS /KRAS [1, 4]: A (a compound having 10 or more and less than 20 is denoted as A); HRAS /KRAS [2, 5]: B (a compound having 3 or more and less than 10 is denoted as B)
0.0347 µM	CCCN1C(=O)[C@@H]2CCN2C(=O)[C@H](C)N(C)C(=O)[C@H](CC)NC(=O)[C@H](CC(C)C)N(C)C(=O)C[C@@H](C(=O)N2CCOCC2)N(C)C(=O)[C@H](C2CCCC2)N(C)C(=O)C2(CCCC2)NC(=O)[C@@H]2CCCN2C(=O)[C@H](CCc2ccc(C(F)(F)F)c(Cl)c2)NC(=O)CN(C)C(=O)[C@@H]1Cc1ccc(C(F)(F)F)cc1 [PP0269] ([NMeL][Abu][NMeA][Aze][NPrPhe(4-CF3)][Sar][hPhe(3-Cl-4-CF3)]P[Ac5c][NMeGly(cPent)][NMeD]-Morpholide; lactam N-11)	–	–	C (A compound having a KD ratio of 0.1 or more and less than 3 is denoted as C)	B (a compound having 3 or more and less than 10 is denoted as B)	–
0.0088 µM	CCO[C@@H]1C[C@H]2C(=O)NC3(CCC3)C(=O)N(C)[C@@H](C3CCCC3)C(=O)N(C)[C@H](C(=O)N(C)C)CC(=O)N(C)[C@@H](CC3CC3)C(=O)N[C@@H]([C@@H](C)CC)C(=O)N(C)CC(=O)N(C)[C@H]3CCCCCN(C3=O)[C@@H](Cc3ccc(C(F)(F)F)cc3)C(=O)N(C)CC(=O)N[C@@H](CCc3cc(F)c(C(F)(F)F)c(F)c3)C(=O)N2C1 [PP0667]	B (a compound having 3 or more and less than 10 is denoted as B)	B (a compound having 3 or more and less than 10 is denoted as B)	–	–	–
0.0038 µM	CCO[C@@H]1C[C@H]2C(=O)NC3(CC(C)(C)C3)C(=O)N(C)[C@@H](C3CCCC3)C(=O)N(C)[C@H](C(=O)N(C)C)CC(=O)N(C)[C@@H](CC(F)(F)F)C(=O)N[C@@H]([C@@H](C)CC)C(=O)N(C)CC(=O)N(C)[C@H]3C/C=C\CCN(C3=O)[C@@H](Cc3ccc(C(F)(F)F)cc3)C(=O)N(C)CC(=O)N[C@@H](CCc3ccc(C(F)(F)F)c(Cl)c3)C(=O)N2C1 [PP2833]	–	–	A (a compound having 10 or more and less than 20 is denoted as A)	A (a compound having 10 or more and less than 20 is denoted as A)	–
